In US5621002A, “Prodrugs for enzyme mediated activation” (Behringwerke Aktiengesellschaft, priority 1993, dated 1997):

T1: antibody-β-glucuronidase fusion protein (Homo sapiens, UniProt P08236)
T1 construct: antibody part only targets
T1 sequence (P08236 23-651): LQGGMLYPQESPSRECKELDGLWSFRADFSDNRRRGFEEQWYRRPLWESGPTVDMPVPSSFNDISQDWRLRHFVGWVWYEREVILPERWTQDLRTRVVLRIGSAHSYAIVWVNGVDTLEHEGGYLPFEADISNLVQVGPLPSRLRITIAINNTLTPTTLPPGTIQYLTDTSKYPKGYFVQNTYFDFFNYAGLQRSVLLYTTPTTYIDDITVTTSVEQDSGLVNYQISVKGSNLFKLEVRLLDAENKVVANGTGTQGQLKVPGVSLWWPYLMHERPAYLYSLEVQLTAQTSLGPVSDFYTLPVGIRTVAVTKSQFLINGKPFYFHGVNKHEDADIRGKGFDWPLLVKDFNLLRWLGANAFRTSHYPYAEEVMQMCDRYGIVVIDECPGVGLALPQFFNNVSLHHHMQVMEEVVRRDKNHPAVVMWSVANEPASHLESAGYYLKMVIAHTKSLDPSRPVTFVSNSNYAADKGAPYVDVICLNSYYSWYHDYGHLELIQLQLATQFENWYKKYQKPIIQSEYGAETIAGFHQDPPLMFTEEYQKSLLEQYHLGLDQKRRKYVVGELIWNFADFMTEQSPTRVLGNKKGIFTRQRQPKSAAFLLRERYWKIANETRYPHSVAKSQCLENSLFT


Experiments:
[1] = target: T1, antibody-β-glucuronidase fusion protein; test: Km and Vmax determination, enzymatic cleavage by fusion protein monitored by HPLC; type: biochemical; details: 100 mM phosphate buffer + 1 mg/ml BSA, pH 7.2, 37° C., substrate 10-10000 μM
Description: (§1) Comparison of Km- and V max-values of natural and improved substrate for antibody β-glucuronidase fusion protein
(§2) For Km- and Vmax-determination 3'-N-[4-(beta-D-Glucuronyloxy)-3-nitro-benzyloxycarbonyl]-doxorubicin and prodrug A should be diluted in the range of 10-10000 μM in 100 mM phosphate buffer+1 mg/ml BSA, pH 7.2. Enzymatic cleavage should be done with constant amounts of fusion protein at 37° C. Cleavage can be monitored by HPLC analysis. Km- and Vmax-values can be calculated with the software program GraFit 2.0 (Erithacus Software Ltd.).
(§3) The HPLC apparatus consisted of an autosampler (Abimed, model 231), an automatic sample extraction system (AASP, Varian) equipped with minicartridges containing C 18 reversed phase silica gel (Analytichem), a gradient pump (Gynkotek, model 480), a fluorescence detector (Shimazdu RF 535, Excitation: 495 nm, Emission: 560 nm). Before sample injection the minicartridges were preconditioned with 2.5 ml methanol and 1.5 ml phosphate buffer, pH 6. Analytes retained on the reversed phase silica gel were then eluted by valve switching and connection of the minicartridges to the mobile phase. Chromatography was performed on reversed phase material (Nucleosil C 18, 5 μm particle size, 120 mm length, 4,5 mm I.D.) and gradient elution. Elution was done by a gradient composed of 2 components (A: 20 mM phosphate, pH 3, B: acetonitrile). […]

[2] = substrate: [H][C@]1(O[C@H]2C[C@H](NC(=O)OCc3ccc(O[C@@H]4O[C@H](C(=O)O)[C@@H](O)[C@H](O)[C@H]4O)c([N+](=O)[O-])c3)[C@H](O)[C@H](C)O2)C[C@](O)(C(=O)CO)Cc2c(O)c3c(c(O)c21)C(=O)c1c(OC)cccc1C3=O; test: as above; type: biochemical, human; details: other: 100 mM phosphate buffer + 1 mg/ml BSA, pH 7.2, 37° C., substrate 10-10000 μM
Description: as §1, §2, §3

Km [1]	Vmax [1]	Molecule	Km [2]	Vmax [2]
< 500 µM	~ 0.635 nmol/μg/min	COc1cccc2c1C(=O)c1c(O)c3c(c(O)c1C2=O)C[C@@](O)(C(=O)CO)C[C@@H]3O[C@H]1C[C@H](NC(=O)OCc2ccc(O[C@@H]3O[C@H]([C@H](O)C(=O)O)[C@H](O)[C@H]3O)c([N+](=O)[O-])c2)[C@H](O)[C@H](C)O1 [Prodrug A]		
		antibody-β-glucuronidase fusion protein (Homo sapiens) (protein, antibody part only targets) LQGGMLYPQESPSRECKELDGLWSFRADFSDNRRRGFEEQWYRRPLWESGPTVDMPVPSSFNDISQDWRLRHFVGWVWYEREVILPERWTQDLRTRVVLRIGSAHSYAIVWVNGVDTLEHEGGYLPFEADISNLVQVGPLPSRLRITIAINNTLTPTTLPPGTIQYLTDTSKYPKGYFVQNTYFDFFNYAGLQRSVLLYTTPTTYIDDITVTTSVEQDSGLVNYQISVKGSNLFKLEVRLLDAENKVVANGTGTQGQLKVPGVSLWWPYLMHERPAYLYSLEVQLTAQTSLGPVSDFYTLPVGIRTVAVTKSQFLINGKPFYFHGVNKHEDADIRGKGFDWPLLVKDFNLLRWLGANAFRTSHYPYAEEVMQMCDRYGIVVIDECPGVGLALPQFFNNVSLHHHMQVMEEVVRRDKNHPAVVMWSVANEPASHLESAGYYLKMVIAHTKSLDPSRPVTFVSNSNYAADKGAPYVDVICLNSYYSWYHDYGHLELIQLQLATQFENWYKKYQKPIIQSEYGAETIAGFHQDPPLMFTEEYQKSLLEQYHLGLDQKRRKYVVGELIWNFADFMTEQSPTRVLGNKKGIFTRQRQPKSAAFLLRERYWKIANETRYPHSVAKSQCLENSLFT	1300 µM	0.635 nmol/µg/min
